Measured values published in patent publication US6358883B1, “Pesticidal and parasiticidal use of 1-aryl-1-(substituted thio, sulfinyl and sulfonyl)-2-nitroethane compounds” (American Cyanamid Company, priority 1998, dated 2002).

What was measured:
Type in all cases: in vivo
[1] = test system: Spodoptera eridania, eggs-southern armyworm (SAW-Eggs); test: Southern armyworm eggs (SAW-Eggs) treated diet test; parameters: key: 0 = no effect; 1 = 10-25% kill; 2 = 26-35% kill; 3 = 36-45% kill; 4 = 46-55% kill; 5 = 56-65% kill; 6 = 66-75% kill; 7 = 76-85% kill; 8 = 86-99% kill; 9 = 100% kill; settings: mortality after 7 days
Procedure, shortened: (§1)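 Eggs of S. eridania or D. undecimpunctata howardi were set on artificial diet pretreated with test solution (10,000 ppm stock in 35% aqueous acetone, water dilutions) and dried. Wells were sealed with vented clear covers, and mortality was scored at day 7.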

[2] = test system: C. elegans (Bristol strain); test: Evaluation of test compounds against C. elegans (motility, 96-well plate); parameters: key: 9=complete kill in 4 hours; 8=complete kill in 24 hours; 7=markedly reduced motility in approximately 95% of worms in 24 hours; 0=normal motility, same as controls; settings: motility at 4 and 24 hours
Procedure, shortened: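 Activity is a semi-quantitative visual score of adult and larval movement, read at 4 h and 24 h post-immersion at 20 °C after gentle tapping. Worms were suspended in Na buffer in wells where compound, dissolved in 80% acetone, had been evaporated.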

[3] = test system: M. incognita (Root Knot Nematode) larvae; test: Evaluation of test compounds against M. incognita larvae in microtiter plate wells (movement score); settings: larvae scored for movement after 20-24 hours; note: key: A score of '9' indicates inactive worms with a straight, sticklike morphology; A score of '8' indicates inactive worms with a limp, curled or curved morphology; A score of '7' indicates dead/paralyzed worms after 72 hours
Procedure, shortened: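 Scoring is by larval movement: dead or paralyzed worms count as positive, and a "7" means dead/paralyzed at 72 hours. Freshly hatched root-knot larvae (50-65 per well) in buffered S Medium were incubated with compounds under plate sealers for 20-24 h before the first read.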

[4] = test system: Diabrotica virgifera virgifera Leconte, 2nd instar western corn rootworm (WCR); test: Western corn rootworm (WCR) soil test; parameters: key: 0 = no effect; 1 = 10-25% kill; 2 = 26-35% kill; 3 = 36-45% kill; 4 = 46-55% kill; 5 = 56-65% kill; 6 = 66-75% kill; 7 = 76-85% kill; 8 = 86-99% kill; 9 = 100% kill
Procedure, shortened: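 Ten 2nd-instar rootworm larvae are placed in jars of moist soil with millet seed and talc treated with 1.25 mg active ingredient (roughly 50 kg/ha) from a 35% acetone-in-water solution. After 5 days mortality is scored, counting missing larvae as dead.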

[5] = test system: Aphis gossypii, cotton aphid (CA); test: Cotton aphid (CA) cotyledon dip test; parameters: key: 0 = no effect; 1 = 10-25% kill; 2 = 26-35% kill; 3 = 36-45% kill; 4 = 46-55% kill; 5 = 56-65% kill; 6 = 66-75% kill; 7 = 76-85% kill; 8 = 86-99% kill; 9 = 100% kill; settings: mortality after 5 days
Procedure, shortened: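 Mortality was scored 5 days after dipping aphid-infested cotyledons, colonised overnight from a transfer leaf, into water dilutions of a 35% acetone/water compound solution.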

[6] = test system: Tetranychus urticae (OP-resistant strain), 2-spotted spider mite (TSM); test: 2-spotted spider mite (TSM) plant dip test; parameters: key: 0 = no effect; 1 = 10-25% kill; 2 = 26-35% kill; 3 = 36-45% kill; 4 = 46-55% kill; 5 = 56-65% kill; 6 = 66-75% kill; 7 = 76-85% kill; 8 = 86-99% kill; 9 = 100% kill; settings: mortality after 2 days
Procedure, shortened: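 Mortality counted 2 days after a 3 s agitated dip of infested Sieva lima bean plants. Compound came from a 10,000 ppm stock in 35% aqueous acetone, with further dilution in water. Each primary leaf carried about 100 OP-resistant mites, allowed to settle ~2 h before dipping.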

[7] = test system: Diabrotica undecimpunctata howardi, eggs-southern corn rootworm (SCR-Eggs); test: Southern corn rootworm eggs (SCR-Eggs) treated diet test; parameters: key: 0 = no effect; 1 = 10-25% kill; 2 = 26-35% kill; 3 = 36-45% kill; 4 = 46-55% kill; 5 = 56-65% kill; 6 = 66-75% kill; 7 = 76-85% kill; 8 = 86-99% kill; 9 = 100% kill; settings: mortality after 7 days
Procedure, shortened: as §1

[8] = test system: Spodoptera eridania, 2nd instar larvae, southern armyworm (SAW); test: Southern armyworm (SAW) leaf dip test; parameters: key: 0 = no effect; 1 = 10-25% kill; 2 = 26-35% kill; 3 = 36-45% kill; 4 = 46-55% kill; 5 = 56-65% kill; 6 = 66-75% kill; 7 = 76-85% kill; 8 = 86-99% kill; 9 = 100% kill
Procedure, shortened: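 Ten 2nd instar caterpillars feed on a Sieva lima bean leaf that was dipped 3 seconds in test solution (stock 10,000 ppm in 35% acetone/water, water-diluted). Five days later, larvae are assessed for death, feeding reduction or abnormal molting.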

COC(=O)CSC(C[N+](=O)[O-])c1cccc(C#N)c1 (racemic) [Example 98]
SAW Eggs (300 ppm) rating [1]: 0 | Rating Against C. elegans (150 ppm) [2]: 8 | M. incognita (150 ppm) score [3]: 0 | WCR (50 ppm) rating [4]: 0 | CA (300 ppm) rating [5]: 0 | TSM (300 ppm) rating [6]: 3 (3 = 36-45% kill) | SCR Eggs (1000 ppm) rating [7]: 0 | SAW (300 ppm) rating [8]: 5 (5 = 56-65% kill)

CCOC(=O)CSC(C[N+](=O)[O-])c1cccc(C#N)c1 (racemic) [Example 99]
SAW Eggs (300 ppm) rating [1]: 0 | Rating Against C. elegans (150 ppm) [2]: 0 | M. incognita (150 ppm) score [3]: 0 | WCR (50 ppm) rating [4]: 0 | CA (300 ppm) rating [5]: 0 | TSM (300 ppm) rating [6]: 0 | SCR Eggs (1000 ppm) rating [7]: 0 | SAW (300 ppm) rating [8]: 0

CCCOC(=O)CSC(C[N+](=O)[O-])c1cccc(C#N)c1 (racemic) [Example 100]
SAW Eggs (300 ppm) rating [1]: 0 | Rating Against C. elegans (150 ppm) [2]: 8 | M. incognita (150 ppm) score [3]: 0 | WCR (50 ppm) rating [4]: 0 | CA (300 ppm) rating [5]: 0 | TSM (300 ppm) rating [6]: 0 | SCR Eggs (1000 ppm) rating [7]: 0 | SAW (300 ppm) rating [8]: 0

CCCCOC(=O)CSC(C[N+](=O)[O-])c1cccc(C#N)c1 (racemic) [Example 101]
SAW Eggs (300 ppm) rating [1]: 0 | Rating Against C. elegans (150 ppm) [2]: 0 | M. incognita (150 ppm) score [3]: 9 | WCR (50 ppm) rating [4]: 0 | CA (300 ppm) rating [5]: 0 | TSM (300 ppm) rating [6]: 0 | SCR Eggs (1000 ppm) rating [7]: 0 | SAW (300 ppm) rating [8]: 0

CCCOC(=O)CSC(C[N+](=O)[O-])c1ccc(OC)cc1 (racemic) [Example 102]
SAW Eggs (300 ppm) rating [1]: 0 | Rating Against C. elegans (150 ppm) [2]: 9 | M. incognita (150 ppm) score [3]: 9 | WCR (50 ppm) rating [4]: 0 | CA (300 ppm) rating [5]: 0 | TSM (300 ppm) rating [6]: 0 | SCR Eggs (1000 ppm) rating [7]: 0 | SAW (300 ppm) rating [8]: 0

CCCOC(=O)CSC(C[N+](=O)[O-])c1cccc(OC)c1 (racemic) [Example 103]
SAW Eggs (300 ppm) rating [1]: 0 | Rating Against C. elegans (150 ppm) [2]: 8 | M. incognita (150 ppm) score [3]: 9 | WCR (50 ppm) rating [4]: 0 | CA (300 ppm) rating [5]: 0 | TSM (300 ppm) rating [6]: 4 (4 = 46-55% kill) | SCR Eggs (1000 ppm) rating [7]: 0 | SAW (300 ppm) rating [8]: 0

CCCOC(=O)CSC(C[N+](=O)[O-])c1ccc2c(c1)OCO2 (racemic) [Example 104]
SAW Eggs (300 ppm) rating [1]: 0 | Rating Against C. elegans (150 ppm) [2]: 9 | M. incognita (150 ppm) score [3]: 8 | WCR (50 ppm) rating [4]: 0 | CA (300 ppm) rating [5]: 0 | TSM (300 ppm) rating [6]: 0 | SCR Eggs (1000 ppm) rating [7]: 0 | SAW (300 ppm) rating [8]: 0

CCCOC(=O)CSC(C[N+](=O)[O-])c1ccccc1 (racemic) [Example 105]
SAW Eggs (300 ppm) rating [1]: 0 | Rating Against C. elegans (150 ppm) [2]: 9 | M. incognita (150 ppm) score [3]: 0 | WCR (50 ppm) rating [4]: 3 (3 = 36-45% kill) | CA (300 ppm) rating [5]: 0 | TSM (300 ppm) rating [6]: 0 | SCR Eggs (1000 ppm) rating [7]: 0 | SAW (300 ppm) rating [8]: 3 (3 = 36-45% kill)

C=CCSC(C[N+](=O)[O-])c1ccccc1 (stereo not drawn) [Example 2]
SAW Eggs (300 ppm) rating [1]: 0 | Rating Against C. elegans (150 ppm) [2]: 0 | M. incognita (150 ppm) score [3]: 9 | SCR Eggs (1000 ppm) rating [7]: 0

CCCOC(=O)CSc1c(F)c(F)c(C(C[N+](=O)[O-])SCC(=O)OCCC)c(F)c1F (stereo not drawn) [Example 145]
SAW Eggs (300 ppm) rating [1]: 0 | Rating Against C. elegans (150 ppm) [2]: 0 | WCR (50 ppm) rating [4]: 0 | CA (300 ppm) rating [5]: 0 | TSM (300 ppm) rating [6]: 0 | SCR Eggs (1000 ppm) rating [7]: 0 | SAW (300 ppm) rating [8]: 0

CCCCOC(=O)CSC(C[N+](=O)[O-])c1c(F)c(F)c(F)c(F)c1F (stereo not drawn) [Example 146]
SAW Eggs (300 ppm) rating [1]: 0 | Rating Against C. elegans (150 ppm) [2]: 7 | WCR (50 ppm) rating [4]: 8 (8 = 86-99% kill) | CA (300 ppm) rating [5]: 0 | TSM (300 ppm) rating [6]: 0 | SCR Eggs (1000 ppm) rating [7]: 0 | SAW (300 ppm) rating [8]: 0

CCCCOC(=O)CSc1c(F)c(F)c(C(C[N+](=O)[O-])SCC(=O)OCCCC)c(F)c1F (stereo not drawn) [Example 147]
SAW Eggs (300 ppm) rating [1]: 0 | Rating Against C. elegans (150 ppm) [2]: 0 | WCR (50 ppm) rating [4]: 0 | CA (300 ppm) rating [5]: 0 | TSM (300 ppm) rating [6]: 0 | SCR Eggs (1000 ppm) rating [7]: 0 | SAW (300 ppm) rating [8]: 0

O=[N+]([O-])CC(SCc1ccccc1)c1c(F)c(F)c(F)c(F)c1F (stereo not drawn) [Example 148]
SAW Eggs (300 ppm) rating [1]: 0 | Rating Against C. elegans (150 ppm) [2]: 0 | WCR (50 ppm) rating [4]: 0 | CA (300 ppm) rating [5]: 0 | TSM (300 ppm) rating [6]: 0 | SCR Eggs (1000 ppm) rating [7]: 0 | SAW (300 ppm) rating [8]: 0

O=[N+]([O-])CC(SCc1ccccc1)c1c(F)c(F)c(SCc2ccccc2)c(F)c1F (stereo not drawn) [Example 149]
SAW Eggs (300 ppm) rating [1]: 0 | Rating Against C. elegans (150 ppm) [2]: 0 | WCR (50 ppm) rating [4]: 0 | CA (300 ppm) rating [5]: 0 | TSM (300 ppm) rating [6]: 0 | SCR Eggs (1000 ppm) rating [7]: 0 | SAW (300 ppm) rating [8]: 0

COc1cccc(C(C[N+](=O)[O-])SCc2ccco2)c1 (stereo not drawn) [Example 158]
SAW Eggs (300 ppm) rating [1]: 0 | Rating Against C. elegans (150 ppm) [2]: 9 | WCR (50 ppm) rating [4]: 0 | CA (300 ppm) rating [5]: 0 | TSM (300 ppm) rating [6]: 0 | SCR Eggs (1000 ppm) rating [7]: 0 | SAW (300 ppm) rating [8]: 0

O=[N+]([O-])CC(SCc1ccccc1)c1ccco1 (stereo not drawn) [Example 203]
SAW Eggs (300 ppm) rating [1]: 9 (9 = 100% kill) | Rating Against C. elegans (150 ppm) [2]: 9 | WCR (50 ppm) rating [4]: 8 (8 = 86-99% kill) | CA (300 ppm) rating [5]: 0 | TSM (300 ppm) rating [6]: 0 | SCR Eggs (1000 ppm) rating [7]: 9 (9 = 100% kill) | SAW (300 ppm) rating [8]: 0
